Format in all cases: biochemical
One assay addresses T1, recombinant human DPP7 (Homo sapiens, UniProt Q9UHL4).
T1 construct: purchased R&D Systems
The experiment in a line: DPP7 inhibition, fluorogenic substrate Lys-Pro-AMC. As to conditions: recombinant human DPP7. In outline:
(§1)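 Inhibitors are titrated in an 8-point series into the enzyme's assay buffer (DMSO no more than 0.5%). Substrate cleavage at 25 °C is followed by fluorescence, excitation 380 nm and emission 460 nm. IC50 values come from a four-variable logistic model.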

The target in another assay is T2, recombinant human DPP9 (Homo sapiens, UniProt Q86TI2).
T2 construct: purchased R&D Systems
T2 sequence (Q86TI2 whole entry): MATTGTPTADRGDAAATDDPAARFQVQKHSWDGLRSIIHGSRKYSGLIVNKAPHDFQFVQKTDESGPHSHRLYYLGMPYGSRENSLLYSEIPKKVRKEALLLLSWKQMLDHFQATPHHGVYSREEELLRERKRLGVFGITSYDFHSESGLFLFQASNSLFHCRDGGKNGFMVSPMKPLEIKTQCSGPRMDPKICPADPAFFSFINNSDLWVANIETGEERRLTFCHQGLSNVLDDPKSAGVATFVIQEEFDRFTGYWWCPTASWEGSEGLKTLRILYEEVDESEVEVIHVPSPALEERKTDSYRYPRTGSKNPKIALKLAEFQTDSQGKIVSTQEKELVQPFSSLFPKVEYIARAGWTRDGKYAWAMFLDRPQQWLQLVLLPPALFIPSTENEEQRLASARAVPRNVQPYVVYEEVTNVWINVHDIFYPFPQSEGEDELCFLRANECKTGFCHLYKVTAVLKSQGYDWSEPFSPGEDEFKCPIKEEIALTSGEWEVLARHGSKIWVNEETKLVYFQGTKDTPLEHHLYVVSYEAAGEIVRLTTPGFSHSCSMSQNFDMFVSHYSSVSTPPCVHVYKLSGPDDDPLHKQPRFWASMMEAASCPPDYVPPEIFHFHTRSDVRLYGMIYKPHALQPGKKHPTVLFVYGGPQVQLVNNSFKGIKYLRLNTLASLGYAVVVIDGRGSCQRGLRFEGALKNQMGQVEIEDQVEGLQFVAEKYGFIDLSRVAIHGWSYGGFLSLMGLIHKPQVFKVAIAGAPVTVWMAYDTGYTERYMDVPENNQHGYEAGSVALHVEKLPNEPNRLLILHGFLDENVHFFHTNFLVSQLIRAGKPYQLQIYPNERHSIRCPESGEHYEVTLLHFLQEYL
As to the kind of experiment: DPP9 inhibition, fluorogenic substrate H-Gly-Pro-AMC. As to conditions: recombinant human DPP9. The gist of the method:
as §1

The target of the next assay is T3, Recombinant human FAP (Homo sapiens, UniProt Q12884).
T3 construct: purchased R&D systems
T3 sequence (Q12884 1-760): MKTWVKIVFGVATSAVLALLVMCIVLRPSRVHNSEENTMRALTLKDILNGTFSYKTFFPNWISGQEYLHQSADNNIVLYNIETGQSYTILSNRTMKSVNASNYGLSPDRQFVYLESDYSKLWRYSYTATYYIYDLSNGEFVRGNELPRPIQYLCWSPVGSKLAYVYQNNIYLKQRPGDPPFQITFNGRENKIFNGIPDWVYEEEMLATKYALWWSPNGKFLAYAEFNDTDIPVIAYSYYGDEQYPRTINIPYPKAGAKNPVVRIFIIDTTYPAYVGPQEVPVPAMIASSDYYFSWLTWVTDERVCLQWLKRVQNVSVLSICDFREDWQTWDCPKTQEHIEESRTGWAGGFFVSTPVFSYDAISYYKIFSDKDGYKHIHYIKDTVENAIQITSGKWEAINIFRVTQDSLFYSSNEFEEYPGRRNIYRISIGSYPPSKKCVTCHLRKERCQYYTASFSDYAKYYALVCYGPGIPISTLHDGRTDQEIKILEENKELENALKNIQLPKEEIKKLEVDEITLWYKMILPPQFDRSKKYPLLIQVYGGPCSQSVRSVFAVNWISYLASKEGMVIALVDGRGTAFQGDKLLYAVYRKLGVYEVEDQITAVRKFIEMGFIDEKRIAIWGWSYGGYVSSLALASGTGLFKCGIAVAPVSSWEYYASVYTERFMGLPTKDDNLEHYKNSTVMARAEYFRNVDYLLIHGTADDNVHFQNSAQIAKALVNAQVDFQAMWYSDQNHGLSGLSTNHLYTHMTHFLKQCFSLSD
The experiment in a line: FAP FRET assay, FGF21-sequence FRET peptide substrate. As to conditions: FRET peptide with human FGF21 sequence, 6 μM, 37° C. In outline: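 FRET peptide bearing human FGF21 sequence (6 μM final) cleaved by 10 ng recombinant human FAP at 37° C in HEPES pH 7.2 buffer with NaCl, BSA and EDTA, DMSO up to 0.1%. Signal-rate decrease versus uninhibited control fitted to a four-variable logistic model for IC50.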

Another assay deals with T4, recombinant human PREP (Homo sapiens, UniProt P48147).
T4 construct: purchased R&D System
T4 sequence (P48147 1-710): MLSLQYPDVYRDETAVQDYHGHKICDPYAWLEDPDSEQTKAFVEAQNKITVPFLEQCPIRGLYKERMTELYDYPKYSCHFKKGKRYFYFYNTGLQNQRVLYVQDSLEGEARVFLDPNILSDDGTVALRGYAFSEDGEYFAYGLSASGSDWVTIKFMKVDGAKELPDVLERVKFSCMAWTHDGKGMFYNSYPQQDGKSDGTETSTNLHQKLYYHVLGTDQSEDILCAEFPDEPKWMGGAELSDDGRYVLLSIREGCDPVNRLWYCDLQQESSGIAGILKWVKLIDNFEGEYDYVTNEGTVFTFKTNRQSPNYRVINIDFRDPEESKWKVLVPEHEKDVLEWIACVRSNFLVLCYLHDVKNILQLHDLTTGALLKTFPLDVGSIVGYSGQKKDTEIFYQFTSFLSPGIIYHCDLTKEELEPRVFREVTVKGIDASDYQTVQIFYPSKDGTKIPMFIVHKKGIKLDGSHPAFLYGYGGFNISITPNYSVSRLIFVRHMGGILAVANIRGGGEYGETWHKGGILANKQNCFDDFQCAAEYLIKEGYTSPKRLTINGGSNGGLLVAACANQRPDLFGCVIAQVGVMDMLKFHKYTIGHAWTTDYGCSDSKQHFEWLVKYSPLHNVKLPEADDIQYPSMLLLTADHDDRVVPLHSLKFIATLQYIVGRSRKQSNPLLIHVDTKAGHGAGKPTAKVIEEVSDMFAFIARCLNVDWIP
As to the kind of experiment: PREP inhibition, fluorogenic substrate Z-Gly-Pro-AMC. Conditions: Inhibitory Activity (IC50, nM) PREP, recombinant human PREP. As to the method: The compounds according to the present technology were evaluated in terms of the inhibitory effect on the activity of dipeptidyl peptidases including FAP by using a substrate producing fluorescent substances upon enzymatic decomposition. The test was conducted at 25° C. to get a final reaction volume of 100 μL in a 96 black well plate. […] Briefly, the test compounds were dissolved in dimethyl sulfoxide (DMSO) at a concentration of 20 mM and then subjected to serial dilution, thereby creating an 8 point curve. As for the control group, a 6 point curve created by serial dilution of Talabostat in the same buffer solution was used. Fluorescence intensity was measured using a microplate reader (Flexstation3, Molecular Devices) under the wavelength condition exciting at 380 nm and reading the emission at 460 nm. The inhibitory effect of the test compounds was measured as a decrease (%) in the signal rate as compared to the control group without any inhibitor. Data was fixed to a logistic model with four variables and IC50 value was calculated using GraphPad Prism program. As for recombinant human DPP4 (R&D Systems), 25 mM tris (pH 8.0) buffer as a buffer solution and H-Gly-Pro-AMC (Bachem) as a substrate were used. As for recombinant human DPP7 (R&D Systems), 25 mM MES (pH 6.0) buffer as a buffer solution and Lys-Pro-AMC (Bachem) as a substrate were used. As for recombinant human DPP8 (PBS Bioscience), as a buffer solution, a 10 mM tris (pH 7.4) buffer comprising 10 mM of magnesium chloride and 0.05% of Tween 20, and Z-Ala-Pro-AMC (BPS Bioscience) as a substrate were used. As for recombinant human DPP9 (R&D Systems), a 25 mM tris (pH 8.0) buffer as a buffer solution and H-Gly-Pro-AMC (Bachem) as a substrate were used. As for recombinant human PREP (R&D System), as a buffer solution, a 25 mM tris (pH 7.5) buffer comprising 250 mM sodium chloride and 2.5 mM DTT (Dithiolthreitol), and Z-Gly-Pro-AMC (Bachem) as a substrate were used. The evaluation was made by using 10 ng of DPP4, PDD7, and PREP, 20 ng of DPP8, and 50 ng of DPP9 based on the final reaction. In the evaluation of DPP4, the test compounds were subjected to serial dilution in a buffer under the condition containing up to 0.1% of DMSO. In the evaluation of DPP7, DPP8, DPP9, and PREP, the test compounds were subjected to serial dilution in each buffer under the condition containing up to 0.5% of DMSO.

In a further assay the target is DPP4 (Homo sapiens, UniProt P27487). As to the kind of experiment: DPP4 inhibition, fluorogenic substrate H-Gly-Pro-AMC. Conditions: recombinant human DPP4. Further details: purchased R&D Systems.
Sequence of DPP4 (P27487 whole entry): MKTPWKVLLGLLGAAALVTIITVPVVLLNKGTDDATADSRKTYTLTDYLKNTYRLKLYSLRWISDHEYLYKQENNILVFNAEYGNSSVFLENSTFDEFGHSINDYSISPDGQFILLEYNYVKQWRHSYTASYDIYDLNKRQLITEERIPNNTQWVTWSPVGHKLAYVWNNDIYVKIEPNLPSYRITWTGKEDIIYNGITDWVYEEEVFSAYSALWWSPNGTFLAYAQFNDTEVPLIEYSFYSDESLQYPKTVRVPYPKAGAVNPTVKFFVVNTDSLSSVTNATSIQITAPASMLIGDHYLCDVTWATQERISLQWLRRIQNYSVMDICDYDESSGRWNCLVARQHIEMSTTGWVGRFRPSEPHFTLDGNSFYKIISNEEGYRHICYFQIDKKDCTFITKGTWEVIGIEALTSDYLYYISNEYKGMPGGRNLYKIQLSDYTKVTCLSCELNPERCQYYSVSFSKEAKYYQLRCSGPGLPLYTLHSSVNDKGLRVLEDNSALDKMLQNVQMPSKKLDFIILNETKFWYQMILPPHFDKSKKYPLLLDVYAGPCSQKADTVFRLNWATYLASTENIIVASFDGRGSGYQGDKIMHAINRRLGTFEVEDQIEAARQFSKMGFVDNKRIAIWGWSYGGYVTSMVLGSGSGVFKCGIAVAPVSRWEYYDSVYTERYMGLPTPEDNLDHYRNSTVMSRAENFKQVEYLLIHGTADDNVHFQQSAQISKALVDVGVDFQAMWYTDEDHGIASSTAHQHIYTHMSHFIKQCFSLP

Regarding `Cc1ccc2ncccc2c1N[C@@H]1CCN(CC(=O)N2C[C@@H](F)C[C@H]2C#N)C1` [Example 180, (2S,4S)-4-fluoro-1-[2-[(3R)-3-[(6-methyl-5-quinolyl)amino]pyrrolidin-1-yl]acetyl]pyrrolidine-2-carbonitrile], the half-inhibitory concentration (IC50) on recombinant human DPP7 worked out at 6790 nM; on recombinant human DPP9, 3180 nM; on Recombinant human FAP, 6.2 nM; at recombinant human PREP it was 1560 nM; at DPP4 it was 1020 nM.
For `N#C[C@@H]1C[C@H](F)CN1C(=O)CN1CC[C@@H](Nc2cc(F)c3ncccc3c2)C1` [Example 214, (2S,4S)-4-fluoro-1-[2-[(3R)-3-[(8-fluoro-6-quinolyl)amino]pyrrolidin-1-yl]acetyl]pyrrolidine-2-carbonitrile], in that order: 764 nM, 970 nM, 3.8 nM, 3030 nM and 1290 nM.
With `N#C[C@@H]1C[C@H](F)CN1C(=O)CN1CC[C@H](Nc2ccc(NC(=O)c3ccccc3)c3ncccc23)C1` [Example 298, N-[5-[[(3S)-1-[2-oxo-2-[(2S,4S)-2-cyano-4-fluoro-pyrrolidin-1-yl]ethyl]pyrrolidin-3-yl]amino]-8-quinolyl]benzamide], the IC50 was found to be 257 nM on recombinant human DPP7; 3070 nM on recombinant human DPP9; 2.1 nM on Recombinant human FAP; 6520 nM at recombinant human PREP; 1860 nM at DPP4.
For `CCOc1ccc(N[C@H]2CCN(CC(=O)N3C[C@@H](F)C[C@H]3C#N)C2)c2cccnc12` [Example 275, (2S,4S)-4-fluoro-1-[2-[(3S)-3-[(8-ethoxy-5-quinolyl)amino]pyrrolidin-1-yl]acetyl]pyrrolidine-2-carbonitrile], in that order: 90.4 nM, 1590 nM, 1.7 nM, 6120 nM and 1430 nM.
As for `N#C[C@@H]1C[C@H](F)CN1C(=O)CN1CC[C@@H](Nc2ccc(C(F)(F)F)c3ncccc23)C1` [Example 183, (2S,4S)-4-fluoro-1-[2-[(3R)-3-[[8-(trifluoromethyl)-5-quinolyl]amino]pyrrolidin-1-yl]acetyl]pyrrolidine-2-carbonitrile], the IC50 on recombinant human DPP7 was found to be 1370 nM; on recombinant human DPP9 it was 6770 nM; at Recombinant human FAP, 2.2 nM; on recombinant human PREP, 3370 nM; at DPP4 it was 1840 nM.
As to `N#C[C@@H]1C[C@H](F)CN1C(=O)CN1CC[C@H](Nc2cc(Cl)c3ncccc3c2)C1` [Example 279, (2S,4S)-4-fluoro-1-[2-[(3S)-3-[(8-chloro-6-quinolyl)amino]pyrrolidin-1-yl]acetyl]pyrrolidine-2-carbonitrile], the IC50 at recombinant human DPP7 was determined as 398 nM; at recombinant human DPP9, 614 nM; at Recombinant human FAP it was 1.5 nM; at recombinant human PREP, 637 nM; at DPP4 it was 254 nM.
`N#C[C@@H]1C[C@H](F)CN1C(=O)CN1CC[C@H](Nc2ccc(C(=O)Nc3ccncc3)c3ncccc23)C1` [Example 292, N-(4-pyridyl)-5-[[(3S)-1-[2-oxo-2-[(2S,4S)-2-cyano-4-fluoro-pyrrolidin-1-yl]ethyl]pyrrolidin-3-yl]amino]quinoline-8-carboxamide]: the IC50 at recombinant human DPP7 turned out to be 163 nM; at recombinant human DPP9, 371 nM; on Recombinant human FAP, 1.3 nM; on recombinant human PREP, 1470 nM; at DPP4, 5180 nM.
In the case of `N#C[C@@H]1CCCN1C(=O)CN1CC[C@@H](Nc2cc(F)cc3ncccc23)C1` [Example 197, (2S)-1-[2-[(3R)-3-[(7-fluoro-5-quinolyl)amino]pyrrolidin-1-yl]acetyl]pyrrolidine-2-carbonitrile], the concentration for half-maximal inhibition (IC50) at recombinant human DPP7 is 4120 nM; on recombinant human DPP9 it was 23800 nM; on Recombinant human FAP, 5.2 nM; at recombinant human PREP, 14700 nM; at DPP4 it was 13400 nM.
As to `CCN(c1cnc2ccccc2c1)C1CCN(CC(=O)N2CCC[C@H]2C#N)CC1` [Example 302, (2S)-1-[2-[4-[ethyl(3-quinolyl)amino]-1-piperidyl]acetyl]pyrrolidine-2-carbonitrile], the IC50 was 7350 nM on recombinant human DPP7; not below 100000 nM at recombinant human DPP9; 22.2 nM at Recombinant human FAP; 350 nM at recombinant human PREP; not below 100000 nM on DPP4.
Take `COc1cc(N[C@@H]2CCN(CC(=O)N3CCC[C@H]3C#N)C2)c2cccnc2c1` [Example 198, (2S)-1-[2-[(3R)-3-[(7-methoxy-5-quinolyl)amino]pyrrolidin-1-yl]acetyl]pyrrolidine-2-carbonitrile]: the IC50 at recombinant human DPP7 stood at 901 nM; at recombinant human DPP9, 14900 nM; at Recombinant human FAP it was 8.6 nM; at recombinant human PREP, 2920 nM; on DPP4, 9460 nM.
Take `N#C[C@@H]1C[C@H](F)CN1C(=O)CN1CC[C@@H](Nc2cccc3ncc(Cl)cc23)C1` [Example 185, (2S,4S)-4-fluoro-1-[2-[(3R)-3-[(3-chloro-5-quinolyl)amino]pyrrolidin-1-yl]acetyl]pyrrolidine-2-carbonitrile]: the IC50 came out at 1300 nM on recombinant human DPP7; 2750 nM on recombinant human DPP9; 2.1 nM at Recombinant human FAP; 3550 nM on recombinant human PREP; 995 nM on DPP4.

The values are drawn from patent US11655235B2, “Pyrrolidine and piperidine compounds” (YUHAN CORPORATION, priority 2019, dated 2023).
